Patent publication US10752587B2, “Homobispiperidinyl derivatives as liver X receptor beta agonists, compositions and their use” (Merck Sharp & Dohme Corp., priority 2015, dated 2020)
Read-outs that look alike come from different tables or passages of the source.

Tests used:
[1] = biological target: T1, glutathione-S-transferase (GST) tagged LXRbeta LBD (ligand binding domain) (Homo sapiens, UniProt P55055); test: LanthaScreen TR-FRET Liver X Receptor Coactivator Assay, co-activator recruitment to LXRbeta LBD; format: biochemical
T1 construct: purchased Invitrogen pv4658.pps
T1 sequence (P55055 222-460 limits assumed): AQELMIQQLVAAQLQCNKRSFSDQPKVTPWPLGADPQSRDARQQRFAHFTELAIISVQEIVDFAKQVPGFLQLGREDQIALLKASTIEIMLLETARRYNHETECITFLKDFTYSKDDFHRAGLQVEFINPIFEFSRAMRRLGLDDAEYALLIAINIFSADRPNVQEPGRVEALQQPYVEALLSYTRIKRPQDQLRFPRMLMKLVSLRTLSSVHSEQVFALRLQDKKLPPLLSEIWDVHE
Outline: (§1)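 GST-tagged LBD added to test compound, then fluorescein-labelled coactivator peptide plus terbium anti-GST antibody; incubated at room temperature, TR-FRET read. Potency given as inflection point and efficacy as Emax relative to reference dual agonist T0901317.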

[2] = biological target: T2, glutathione-S-transferase (GST) tagged LXRalpha LBD (ligand binding domain) (Homo sapiens, UniProt Q13133); test: LanthaScreen TR-FRET Liver X Receptor Coactivator Assay, co-activator recruitment to LXRalpha LBD; format: biochemical
T2 construct: purchased Invitrogen pv4655
T2 sequence (Q13133 209-447 limits assumed): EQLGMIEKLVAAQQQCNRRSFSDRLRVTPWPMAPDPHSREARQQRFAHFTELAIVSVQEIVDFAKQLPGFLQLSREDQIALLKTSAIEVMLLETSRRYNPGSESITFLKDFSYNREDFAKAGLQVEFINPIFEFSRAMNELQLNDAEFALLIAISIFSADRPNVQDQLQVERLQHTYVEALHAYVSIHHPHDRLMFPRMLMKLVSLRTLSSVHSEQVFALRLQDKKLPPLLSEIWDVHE
Outline: as §1

[3] = efficacy at max dose, in relation to reference dual agonist T0901317, read-out: LXR beta Activity @ max dose (%)
[4] = potency (Inflection Point, IP), co-activator recruitment to LXRbeta LBD, in relation to T0901317, read-out: LXR beta IP
[5] = efficacy at max dose, in relation to reference dual agonist T0901317, read-out: LXR alpha Activity @ max dose (%)
[6] = potency (Inflection Point, IP), co-activator recruitment to LXRalpha LBD, in relation to T0901317, read-out: LXR alpha IP
[7] = co-activator recruitment to GST-LXRbeta LBD, TR-FRET, read-out: LXR beta IP (Inflection Point, potency)
[8] = efficacy in relation to reference dual agonist T0901317, read-out: LXR beta Activity @ max dose
[9] = co-activator recruitment to GST-LXRalpha LBD, TR-FRET, read-out: LXR alpha IP (Inflection Point, potency)
[10] = efficacy in relation to reference dual agonist T0901317, read-out: LXR alpha Activity @ max dose
[11] = potency (Inflection Point, IP), co-activator recruitment to LXRalpha LBD, in relation to T0901317

Structure (SMILES)	Emax [1, 3] [%]	EC50 [1, 4] [nM]	Emax [2, 5] [%]	EC50 [2, 6] [nM]	EC50 [1, 7] [nM]	Emax [1, 8] [%]	EC50 [2, 9] [nM]	Emax [2, 10] [%]	LXR alpha IP (nM) [2, 11]	LXR alpha IP (Inflection Point, potency) ([2]; co-activator recruitment to GST-LXRalpha LBD, TR-FRET)
Cc1ccsc1C(O)(C(=O)N1CCC(CC2CCN(c3ccc(C(=O)N(C)C)c(Cl)c3)CC2)CC1)C(F)(F)F (stereo not shown) [Example 2-38, 2-chloro-N,N-dimethyl-4-[4-({1-[3,3,3-trifluoro-2-hydroxy-2-(3-methyl-thiophen-2-yl)propanoyl]piperidin-4-yl}methyl)piperidin-1-yl]benzamide]	67	49	15	575						
O=C(c1ccc(N2CCC(CC3CCN(C(=O)[C@](O)(c4cc(Cl)cc(Cl)c4)C(F)(F)F)CC3)CC2)cc1Cl)N1CCC[C@H]1CO [Example 4-24, (2R)-3-(4-{[1-(3-chloro-4-{[(2S)-2-(hydroxymethyl)pyrrolidin-1-yl]carbonyl}phenyl)piperidin-4-yl]methyl}piperidin-1-yl)-2-(3,5-dichlorophenyl)-1,1,1-trifluoro-3-oxopropan-2-ol]	28	7	0						NO IP	
CN(C)C(=O)c1ncc(N2CCC(CC3CCN(C(=O)C(O)(c4cccc(C(F)(F)F)c4)C(F)(F)F)CC3)CC2)cc1Cl (stereo not shown) [Example 2-5, 3-chloro-N,N-dimethyl-5-{4-[(1-{3,3,3-trifluoro-2-hydroxy-2-[3-(trifluoromethyl)phenyl]propanoyl}piperidin-4-yl)methyl]piperidin-1-yl}pyridine-2-carboxamide]	57	29	19	752						
CCc1cccc([C@@](O)(C(=O)N2CCC(C)(CC3CCN(c4ccc(C(=O)N(C)C)c(Cl)c4)CC3)CC2)C(F)(F)F)c1 [Example 2-52, 2-chloro-4-[4-({1-[(2R)-2-(3-ethyl-phenyl)-3,3,3-trifluoro-2-hydroxy-propanoyl]-4-methyl-piperidin-4-yl}methyl)piperidin-1-yl]-N,N-dimethyl-benzamide]	20	15	0						NO IP	
CN(Cc1ccon1)C(=O)c1ccc(N2CCC(OC3CCN(C(=O)[C@](O)(c4ccccc4)C(F)(F)F)CC3)CC2)cc1Cl [Example 4-15, 2-chloro-N-(isoxazol-3-yl-methyl)-N-methyl-4-[4-({1-[(2R)-3,3,3-trifluoro-2-hydroxy-2-phenylpropanoyl]piperidin-4-yl}oxy)piperidin-1-yl]benzamide]	87	38	40	1300						
COc1cccc([C@@](O)(C(=O)N2CCC(CC3CCN(c4ccc(C(=O)N(C)C)c(C)n4)CC3)CC2)C(F)(F)F)c1 [Example 7-5, N,N,2-trimethyl-6-[4-({1-[(2R)-3,3,3-trifluoro-2-hydroxy-2-(3-methoxyphenyl)propanoyl]piperidin-4-yl}methyl)piperidin-1-yl]pyridine-3-carboxamide]	69	25	8						NO IP	
Cc1cc(N2CCC(CC3CCN(C(=O)[C@](O)(c4ccccc4)C(F)(F)F)CC3)CC2)ccc1C(=O)N(C)C [Example 2-155, N,N,2-trimethyl-4-[4-({1-[(2R)-3,3,3-trifluoro-2-hydroxy-2-phenyl-propanoyl]piperidin-4-yl}methyl)piperidin-1-yl]benzamide]	69	25	33	386						
CN(C)C(=O)c1ccc(N2CCC(CC3CCN(C(=O)C(O)(c4cccc(F)c4)C(F)F)CC3)CC2)cc1Cl (stereo not shown) [Example 2-122, 2-chloro-4-[4-({1-[3,3-difluoro-2-(3-fluorophenyl)-2-hydroxy-propanoyl]piperidin-4-yl}methyl)piperidin-1-yl]-N,N-dimethyl-benzamide]	69	27	29	543						
COc1cc(F)cc([C@@](O)(C(=O)N2CCC(CC3CCN(c4ccc(C(=O)N(C)C)cc4)CC3)CC2)C(F)(F)F)c1 [Example 2-137, N,N-dimethyl-4-[4-({1-[(2R)-3,3,3-trifluoro-2-(3-fluoro-5-methoxyphenyl)-2-hydroxy-propanoyl]piperidin-4-yl}methyl)piperidin-1-yl]benzamide]	78	30	15						NO IP	
Cc1cc(N2CCC(CC3CN(C(=O)[C@](O)(c4cc(F)cc(Cl)c4)C(F)(F)F)C3)CC2)ccc1C(=O)N(C)C [Example 2-81, 4-[4-({1-[(2R)-2-(3-chloro-5-fluorophenyl)-3,3,3-trifluoro-2-hydroxy-propanoyl]azetidin-3-yl}methyl)piperidin-1-yl]-N,N,2-trimethyl-benzamide]	103	39	40	798						

Other lines, results leading:

Emax [1, 3] [%]	EC50 [1, 4] [nM]	Emax [2, 5] [%]	EC50 [2, 6] [nM]	EC50 [1, 7] [nM]	Emax [1, 8] [%]	EC50 [2, 9] [nM]	Emax [2, 10] [%]	LXR alpha IP (nM) [2, 11]	LXR alpha IP (Inflection Point, potency) ([2]; co-activator recruitment to GST-LXRalpha LBD, TR-FRET)	Structure (SMILES)
				497	58	2730	24			CN(C)C(=O)c1ccc(N2CCC(CC3CCN(S(=O)(=O)c4ccc(F)cc4)CC3)CC2)cc1Cl [Example 13-14, 2-chloro-4-[4-({1-[(4-fluorophenyl)sulfonyl]-piperidin-4-yl}methyl)-piperidin-1-yl]-N,N-dimethylbenzamide]
53	10	6						NO IP		CCOc1cccc(C(O)(C(=O)N2CCC(CC3CCN(c4ccc(C(=O)N(C)C)c(Cl)n4)CC3)CC2)C(F)(F)F)c1 (stereo not shown) [Example 7-77, 2-chloro-6-[4-({1-[2-(3-ethoxyphenyl)-3,3,3-trifluoro-2-hydroxypropanoyl]piperidin-4-yl}methyl)piperidin-1-yl]-N,N-dimethylpyridine-3-carboxamide]
				74	49		15		NO IP	CN(C)C(=O)c1ccc(N2CCC(CC3CCN(S(=O)(=O)c4cccc(Cl)c4)CC3)CC2)cc1Cl [Example 13-13, 2-chloro-4-[4-({1-[(3-chlorophenyl)sulfonyl]-piperidin-4-yl}methyl)-piperidin-1-yl]-N,N-dimethylbenzamide]
41	6	10						NO IP		CCc1cccc(C(O)(C(=O)N2CCC(CC3CCN(c4ccc(C(=O)N(C)C)c(Cl)n4)CC3)CC2)C(F)(F)F)c1 (stereo not shown) [Example 7-90, 2-chloro-6-[4-({1-[2-(3-ethylphenyl)-3,3,3-trifluoro-2-hydroxypropanoyl]piperidin-4-yl}methyl)piperidin-1-yl]-N,N-dimethylpyridine-3-carboxamide]
				43	95	935	46			CN(C)C(=O)c1ccc(N2CCC(CC3CCN(S(=O)(=O)c4ccccc4F)CC3)CC2)cc1Cl [Example 13-8, 2-chloro-4-[4-({1-[(2-fluorophenyl)sulfonyl]-piperidin-4-yl}methyl)-piperidin-1-yl]-N,N-dimethylbenzamide]
108	83	48	1590							CN(C)C(=O)c1ccc(N2CCC(CC3CCN(C(=O)C(O)(c4cccnc4)C(F)(F)F)CC3)CC2)nc1Cl (stereo not shown) [Example 7-66, 2-chloro-N,N-dimethyl-6-(4-{[1-(3,3,3-trifuoro-2-hydroxy-2-pyridin-3-ylpropanoyl)piperidin-4-yl]methyl}piperidin-1-yl)pyridine-3-carboxamide]
				52	63	590	33			CN(C)C(=O)c1ccc(N2CCC(CC3CCN(S(=O)(=O)c4cc(F)ccc4F)CC3)CC2)cc1Cl [Example 13-5, 2-chloro-4-[4-({1-[(2,5-difluorophenyl)-sulfonyl]piperidin-4-yl}methyl)piperidin-1-yl]-N,N-dimethylbenzamide]
81	7	34	121							CNC(=O)c1ccc(N2CCC(CC3CCN(C(=O)[C@](O)(c4cccc(C)c4)C(F)(F)F)CC3)CC2)nc1Cl [Example 7-151, 2-chloro-N-methyl-6-[4-({1-[(2R)-3,3,3-trifluoro-2-hydroxy-2-(3-methylphenyl)propanoyl]piperidin-4-yl}methyl)piperidin-1-yl]pyridine-3-carboxamide]
122	158	44	1130							CNC(=O)c1ccc(N2CCC(CC3CCN(C(=O)[C@@](O)(c4ccccc4)C(F)(F)F)CC3)CC2)nc1Cl [Example 7-140, 2-chloro-N-methyl-6-[4-({1-[(2S)-3,3,3-trifluoro-2-hydroxy-2-phenylpropanoyl]piperidin-4-yl}methyl)piperidin-1-yl]pyridine-3-carboxamide]
